The source of these data is US8952010B2, “Amino group-containing pyrrolidinone derivative” (Daiichi Sankyo Company, Limited, priority 2011, dated 2015).

Converted amounts (≈) assume the structure as drawn.

The test system of the assay is MRSA DB00026. As to the kind of experiment: Measurement of antibacterial activity (MIC), standard methods of the Japanese Society of Chemotherapy. In kind it is cell-based, methicillin-resistant Staphylococcus aureus. As to conditions: Staphylococcus aureus; bacteria: MRSA DB00026. The method, then:
The measurement method of antibacterial activity of the compound of the present invention was carried out in accordance with the standard methods specified by the Japanese Society of Chemotherapy, and the results are shown in MIC (μg/mL) (Table 1).
Turning to `COc1ccc2ncc(=O)n(CCNC[C@H]3CC(=O)N(c4ccc5c(c4)NC(=O)CO5)C3)c2c1` [Example 16, 6-[(4R)-4-({[2-(7-Methoxy-2-oxoquinoxalin-1(2H)-yl)ethyl]amino}methyl)-2-oxopyrrolidin-1-yl]-2H-1,4-benzoxazin-3(4H)-one], the MIC (commonly the lowest concentration found to suppress growth) is at most 0.06 µg/mL.

In turn, `COc1ccc2ncc(=O)n(CCCCNC3CC(=O)N(c4ccc5c(c4)NC(=O)CO5)C3)c2c1` (stereo not shown) [Example 1, 6-(4-{[4-(7-Methoxy-2-oxoquinoxalin-1(2H)-yl)butyl]amino}-2-oxopyrrolidin-1-yl)-2H-1,4-benzoxazin-3(4H)-one] returned a minimum inhibitory concentration (MIC) of 0.12 µg/mL (≈ 0.251 µM). To `COc1ccc2ncc(=O)n(CC(O)CNC[C@H]3CC(=O)N(c4ccc5c(n4)NC(=O)CO5)C3)c2n1` (stereo partly drawn) [Example 22, 6-[(4R)-4-({[2-Hydroxy-3-(6-methoxy-3-oxopyrido[2,3-b]pyrazin-4(3H)-yl)propyl]amino}methyl)-2-oxopyrrolidin-1-yl)-2H-pyrido[3,2-b][1,4]oxazin-3(4H)-one] belongs 0.25 µg/mL (≈ 0.505 µM). Regarding `COc1ccc2ncc(=O)n(CCNC[C@H]3CC(=O)N(c4ccc5c(n4)NC(=O)CO5)C3)c2c1` [Example 19, 6-[(4R)-4-({[2-(7-Methoxy-2-oxoquinoxalin-1(2H)-yl)ethyl]amino}methyl)-2-oxopyrrolidin-1-yl]-2H-pyrido[3,2-b][1,4]oxazin-3(4H)-one], the MIC was at most 0.06 µg/mL.

Take `COc1ccc2ncc(=O)n(CCCCNC3CC(=O)N(c4ccc5c(c4)NC(=O)CO5)C3)c2n1` (stereo not shown) [Example 15, 6-Methoxy-4-(4-{[5-oxo-1-(3-oxo-3,4-dihydro-2H-1,4-benzoxazin-6-yl)pyrrolidin-3-yl]amino}butyl)pyrido[2,3-b]pyrazin-3(4H)-one]: the MIC is at most 0.06 µg/mL.

Turning to `COc1ccc2ncc(=O)n(CC(F)CNC[C@H]3CC(=O)N(c4ccc5c(c4)NC(=O)CO5)C3)c2n1` (stereo partly shown) [Example 23], the MIC is at most 0.06 µg/mL. Take `COc1ccc2ncc(=O)n(CCCNC3CC(=O)N(c4ccc5c(c4)NC(=O)CO5)C3)c2c1` (stereo not shown) [Example 2, 6-(4-{[3-(7-Methoxy-2-oxoquinoxalin-1(2H)-yl)propyl]amino}-2-oxopyrrolidin-1-yl)-2H-1,4-benzoxazin-3(4H)-one]: the MIC was at most 0.06 µg/mL.
